Assay results from US20250255792A1, “Methods of Using a Small Molecule Chemical Compound to Reduce the Appearance of Rhytids and Wrinkles” (BirchBioMed Inc., priority 2022, published 2025).
Entries after “also recorded” stand apart in the source; their conditions may differ.

Key:
collagen 1 = conditions: dermal fibroblasts; cited from earlier work
[1] = test system: rabbit ear hypertrophic scarring model; conditions: topical application to skin tissue; cited from earlier work
[2] = biological target: T1, aryl hydrocarbon receptor (AhR) (Homo sapiens, UniProt P35869); conditions: cited from earlier work
T1 sequence (P35869 11-848): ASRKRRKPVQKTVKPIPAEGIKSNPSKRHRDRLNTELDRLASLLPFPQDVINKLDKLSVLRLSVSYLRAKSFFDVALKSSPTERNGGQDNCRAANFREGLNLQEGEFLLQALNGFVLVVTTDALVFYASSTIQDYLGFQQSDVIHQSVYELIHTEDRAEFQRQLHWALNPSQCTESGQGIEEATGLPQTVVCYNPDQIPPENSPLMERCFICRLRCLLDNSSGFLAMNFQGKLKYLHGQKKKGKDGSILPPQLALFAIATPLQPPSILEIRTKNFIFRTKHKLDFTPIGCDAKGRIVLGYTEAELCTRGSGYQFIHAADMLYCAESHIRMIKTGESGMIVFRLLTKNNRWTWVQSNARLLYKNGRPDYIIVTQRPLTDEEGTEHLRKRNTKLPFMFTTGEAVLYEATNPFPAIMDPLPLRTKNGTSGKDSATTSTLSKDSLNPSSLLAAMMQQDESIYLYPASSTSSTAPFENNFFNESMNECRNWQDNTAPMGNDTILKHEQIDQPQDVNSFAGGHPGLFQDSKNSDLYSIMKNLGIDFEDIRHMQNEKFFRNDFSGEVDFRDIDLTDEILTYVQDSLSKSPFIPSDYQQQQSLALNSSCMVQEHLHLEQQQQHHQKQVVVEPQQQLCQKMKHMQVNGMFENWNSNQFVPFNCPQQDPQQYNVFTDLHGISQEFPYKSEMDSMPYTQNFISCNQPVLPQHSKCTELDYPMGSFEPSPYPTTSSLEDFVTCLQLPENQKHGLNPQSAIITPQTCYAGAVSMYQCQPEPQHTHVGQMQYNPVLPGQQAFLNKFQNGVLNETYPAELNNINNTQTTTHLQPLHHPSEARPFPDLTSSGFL

MMP-1 = conditions: dermal fibroblasts; cited from earlier work
[3] = test system: UVB-induced wrinkle formation; conditions: animal model (Kim, 2022); cited from earlier work
[4] = test system: rhytids and wrinkles on the face; assay: Topical use of 0.5% kynurenic acid cream on facial rhytids and wrinkles (self-reported, visual inspection); format: in vivo, human; conditions: person, approx. 3 mg per application
Source text: (§1) Initial dermatological effects can be followed by visual inspection of the site.
as §1

MMP-3 = conditions: dermal fibroblasts; cited from earlier work
fibronectin = conditions: dermal fibroblasts; cited from earlier work

Molecule | collagen 1 expression (collagen 1) | MMP-1 relative to controls [1] | collagen relative to controls [1] | AhR agonist / antagonist activity [2] | MMP-1 expression (MMP-1) | UVB-induced wrinkle formation [3] | visibility of rhytids and wrinkles (user-reported) ([4]; topical cream 0.5% kynurenic acid by weight once a day, approx. 80 micrograms per square cm, after a 2-month period) | appearance and visibility of rhytids and wrinkles (subject-reported) ([4]; topical cream 0.5% kynurenic acid by weight twice daily, approx. 60 micrograms per square cm, approx. two-month period) | MMP-3 expression (MMP-3) | fibronectin expression (fibronectin)
Nc1ccccc1C(=O)CC(N)C(=O)O (racemic) [kynurenine] | suppress collagen production | increased | decreased | AhR agonists | increase MMP production | – | – | – | – | –
Nc1nc2ncc(CNc3ccc(C(=O)N[C@@H](CCC(=O)O)C(=O)O)cc3)nc2c(=O)[nH]1 [folic acid] | – | – | – | AhR antagonists | – | helped reduce; also recorded: ameliorated | – | – | – | –
O=C(O)c1cc(=O)c2ccccc2[nH]1 [kynurenic acid] | downregulate; also recorded: suppress collagen production | – | – | – | increase expression; also recorded: increase MMP production; also recorded: upregulate | – | less visible and less noticeable | perceptible and noticeable reduction | increase expression; also recorded: upregulate | downregulate
vitamin B12 | – | – | – | AhR antagonists | – | helped reduce; also recorded: ameliorated | – | – | – | –
